Some results are limits rather than exact numbers.

22 compounds from patent US11667602B2, “Compounds and their use” (AstraZeneca AB, priority 2020, dated 2023) can be followed below.

The experiment deals with T1, human RXFP1 (Homo sapiens, UniProt Q9HBX9).
T1 sequence (Q9HBX9 1-757): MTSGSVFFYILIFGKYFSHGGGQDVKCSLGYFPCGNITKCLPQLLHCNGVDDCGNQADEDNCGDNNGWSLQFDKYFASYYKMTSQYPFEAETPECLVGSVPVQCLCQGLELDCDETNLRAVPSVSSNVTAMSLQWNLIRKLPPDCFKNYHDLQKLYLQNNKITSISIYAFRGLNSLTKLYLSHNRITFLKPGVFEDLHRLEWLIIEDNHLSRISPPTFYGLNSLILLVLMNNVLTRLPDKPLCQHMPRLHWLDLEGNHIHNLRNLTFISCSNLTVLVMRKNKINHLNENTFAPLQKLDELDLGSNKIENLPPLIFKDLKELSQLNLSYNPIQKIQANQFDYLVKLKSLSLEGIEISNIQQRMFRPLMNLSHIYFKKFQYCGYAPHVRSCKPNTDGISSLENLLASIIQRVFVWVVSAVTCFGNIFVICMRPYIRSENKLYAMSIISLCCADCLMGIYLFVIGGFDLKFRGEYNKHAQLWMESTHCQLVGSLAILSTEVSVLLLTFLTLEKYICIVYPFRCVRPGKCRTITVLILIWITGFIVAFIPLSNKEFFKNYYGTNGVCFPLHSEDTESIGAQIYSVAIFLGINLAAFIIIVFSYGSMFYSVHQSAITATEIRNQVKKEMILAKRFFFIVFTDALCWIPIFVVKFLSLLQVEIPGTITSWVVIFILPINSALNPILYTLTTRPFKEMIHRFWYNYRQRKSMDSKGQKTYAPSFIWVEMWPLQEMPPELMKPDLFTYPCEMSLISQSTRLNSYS
Description: RXFP1 Hu cAMP (Test A). The format is cell-based. Also noted: expressed in transfected cells; host or cells: Jump-In T-REx CHO-K1 cells (ThermoFisher), induced with 10 ng/ml doxycycline for 24 h. As to conditions: RXFP1 Hu cAMP; for EC50: read-out: Test A EC50. The text has this:
To screen for modulators of hRXFP1, an assay identifying compounds that stimulate cAMP production via the Gs-coupled hRXFP1 receptor was used. cAMP HiRange HTRF kit (available from CisBio Bioassays, France; catalogue number 62AM6PEJ) was employed in large according to manufacturer's recommendations for detection of cAMP. The HTRF method is a competitive immunoassay between native cAMP produced by cells and cAMP labeled with the dye d2. The tracer binding is visualized with a cryptate labeled antibody for cAMP and the signal is thus inversely proportional to the amount of produced cAMP.
Cells: Jump-In™ T-REx™ CHO-K1 Cells (ThermoFisher) stably transfected with human RXFP1 was employed. Cells were induced to express human RXFP1 by treatment with 10 ng/ml doxycycline for 24 h. Cells were then cryopreserved for long term storage.
HTRF detection reagents: cAMP-d2 and anti-cAMP cryptate reconstituted according to CisBio instructions were diluted 1:40 in lysis buffer provided with the HTRF-kit.
3. 4 μL assay buffer with 1 mM IBMX (0.5 mM final concentration) to block phosphodiesterases was added with Multidrop Combi (ThermoFisher).
6. 4 μL cAMP-d2 in lysis buffer was added with Multidrop Combi.
7. 4 μL anti-cAMP cryptate in lysis buffer was added with Multidrop Combi
8. 2 h incubation at room temperature
Using a cAMP standard curve, HTRF data was converted to amount cAMP produced in the samples which was subsequentially used for calculation of concentration responses. Concentration response data were fitted with a four parameter logistic fit, the Hill equation. The results from the assay are reported in Table 36 as EC50 (μM) and Sinf (%).
Where the assay was run multiple times for the same compound, the geometric mean is reported.
Sinf is the fitted activity level, efficacy, at infinite concentration of test compound. To facilitate comparison of efficacy data, efficacy was normalized to % effect of the response stimulated by a saturating concentration of relaxin (1 nM). Where the assay was run multiple times for the same compound, the arithmetic mean is reported.

The EC50 is the concentration at which the effect is half-maximal. In the case of `COc1cc(F)c(-c2ccc(C(=O)O)cc2)cc1C(=O)N[C@H]1[C@@H](C(=O)Nc2ccc(F)c(C(F)(F)F)c2)[C@@H]2C=C[C@H]1C2` (racemic) [Example 307, rac-2′-Fluoro-5′-(((1R,2R,3S,4S)-3-((4-fluoro-3-(trifluoromethyl)phenyl)carbamoyl)bicyclo[2.2.1]hept-5-en-2-yl)carbamoyl)-4′-methoxy-[1,1′-biphenyl]-4-carboxylic acid], the “Test A Sinf” value is reported as 90% and the EC50 was 180 nM.

As for `COc1cc(F)c(O[C@H]2CC[C@@](C)(C(=O)O)CC2)cc1C(=O)NC1COCC1C(=O)Nc1cccc(S(=O)(=O)C(F)(F)F)c1` (single isomer, unassigned) [Example 560, (1R,4s)-4-(2-Fluoro-4-methoxy-5-(((3S*,4R*)-4-((3-((trifluoromethyl)sulfonyl)phenyl)carbamoyl)tetrahydrofuran-3-yl)carbamoyl)phenoxy)-1-methylcyclohexane-1-carboxylic acid], the concentration giving a half-maximal response (EC50) was more than 40000 nM. Consider `COc1cc(C#N)c(O[C@H]2CC[C@@](C)(C(=O)O)CC2)cc1C(=O)N[C@@H]1[C@H]2CC[C@H](C2)[C@@H]1C(=O)NCC(C)(C)OC` [Example 129], for which the “Test A Sinf” value is listed as 107% and the EC50 amounted to 240 nM. As to `COc1cc(C#N)c(O[C@H]2CC[C@@](C)(C(=O)O)CC2)cc1C(=O)N[C@@H]1[C@H]2CC[C@H](C2)[C@@H]1C(=O)NC[C@H](C)c1ccccc1` [Example 118], the “Test A Sinf” value is 99% and the EC50 was 43 nM. For the compound `COc1cc(F)c(OC2CCC(C(=O)O)CC2)cc1C(=O)N[C@H]1[C@@H](C(=O)Nc2cccc(S(=O)(=O)C(F)(F)F)c2)[C@@H]2C=C[C@H]1C2` (mixture of isomers) [Example 457], the “Test A Sinf” value was found to be 56%.

Regarding `COc1cc(F)c(O[C@H]2CC[C@@](C)(C(=O)O)CC2)cc1C(=O)N[C@@H]1[C@H]2CC[C@H](C2)[C@@H]1C(=O)NCC1(C#N)CCC1` [Example 595], the “Test A Sinf” value is given as 116% and the EC50 was found to be 570 nM. For `COc1cc(F)c(-c2ccc(C(=O)O)cc2)cc1C(=O)N[C@H]1[C@@H](C(=O)N[C@@H]2CCCN(S(=O)(=O)C(F)(F)F)C2)[C@@H]2C=C[C@H]1C2` (racemic) [Example 312], the “Test A Sinf” value is recorded as 50% and the EC50 was 7500 nM.

Take `COc1cc(F)c(O[C@H]2CC[C@@H](NS(C)(=O)=O)CC2)cc1C(=O)N[C@@H]1[C@H]2CC[C@H](C2)[C@@H]1C(=O)Nc1cccc(S(=O)(=O)C(F)(F)F)c1` [Example 459, (1R,2S,3R,4S)-3-(4-Fluoro-2-methoxy-5-(((1s,4S)-4-(methylsulfonamido)cyclohexyl)oxy)benzamido)-N-(3-((trifluoromethyl)sulfonyl)phenyl)bicyclo[2.2.1]heptane-2-carboxamide]: the “Test A Sinf” value came out at 91% and the EC50 is 320 nM. `COc1cc(C#N)c(O[C@H]2CC[C@@](C)(C(=O)O)CC2)cc1C(=O)N[C@@H]1[C@H]2CC[C@H](C2)[C@@H]1C(=O)NCCCC1CC1` [Example 132]: the “Test A Sinf” value is reported as 113%.

“(1R,4s)-4-(2-fluoro-4-methoxy-5-(((3S*,4S*)-3-((3-((trifluoromethyl)sulfonyl)phenyl)carbamoyl)tetrahydro-2H-pyran-4-yl)carbamoyl)phenoxy)-1-methylcyclohexane-1-carboxylic acid [Example 519]”: the “Test A Sinf” value is recorded as 101%.

Take `COc1cc(F)c(-c2cnc(C(=O)O)cn2)cc1C(=O)N[C@H]1[C@@H](C(=O)Nc2cccc(S(=O)(=O)C(F)(F)F)c2)[C@@H]2C=C[C@H]1C2` (racemic) [Example 276]: the “Test A Sinf” value was 95% and the EC50 was 3300 nM.

As to “(1R,4s)-4-(2-Fluoro-4-methoxy-5-(((1S*,2S*,3R*,4R*)-3-((3-((trifluoromethyl)sulfonyl)phenyl)carbamoyl)bicyclo[2.2.1]heptan-2-yl)carbamoyl)phenoxy)-1-methylcyclohexane-1-carboxylic acid [Example 587]”, the “Test A Sinf” value was found to be 113%. Regarding `COc1cc(F)c(O[C@H]2CC[C@@](C)(C(=O)O)CC2)cc1C(=O)N[C@H]1[C@@H](C(=O)Nc2cccc(S(=O)(=O)C(F)(F)F)c2)CC[C@H]1OC` (racemic) [Example 397, (1R,4s)-4-(2-Fluoro-4-methoxy-5-(((1SR,2RS,5SR)-2-methoxy-5-((3-((trifluoromethyl)sulfonyl)phenyl)carbamoyl)cyclopentyl)carbamoyl)phenoxy)-1-methylcyclohexane-1-carboxylic acid], the EC50 was more than 40000 nM. For the compound `COc1cc(C#N)c(O[C@H]2CC[C@@](C)(C(=O)O)CC2)cc1C(=O)N[C@@H]1[C@H]2CC[C@H](C2)[C@@H]1C(=O)NCC(C)(C)CO` [Example 138], the “Test A Sinf” value came to 100% and the half-maximal effective concentration (EC50) is 1200 nM. In the case of `COc1cc(F)c(-c2cc(C)c(C(=O)O)c(C)c2)cc1C(=O)N[C@@H]1[C@H]2CC[C@H](C2)[C@@H]1C(=O)Nc1cccc(S(=O)(=O)C(F)(F)F)c1` [Example 252, 2′-Fluoro-4′-methoxy-3,5-dimethyl-5′-(((1S,2R,3S,4R)-3-((3-((trifluoromethyl)sulfonyl)phenyl)carbamoyl)bicyclo[2.2.1]heptan-2-yl)carbamoyl)-[1,1′-biphenyl]-4-carboxylic acid], the “Test A Sinf” value was determined as 86% and the concentration giving a half-maximal response (EC50) is 780 nM. In the case of `COc1cc(F)c(-c2c[nH]c(C(=O)O)c2)cc1C(=O)N[C@H]1[C@@H](C(=O)Nc2cccc(S(=O)(=O)C(F)(F)F)c2)[C@@H]2C=C[C@H]1C2` (racemic) [Example 229], the “Test A Sinf” value is reported as 55% and the EC50 stood at 3300 nM. In the same order, the values of `COc1cc(F)c(O[C@H]2CC[C@@](C)(C(=O)O)CC2)cc1C(=O)NC1C2CCC(O2)C1C(=O)NCC1(C)CCC1` (single isomer, unassigned) [Example 530, (1R,4s)-4-(2-Fluoro-4-methoxy-5-(((1S*,2S*,3R*,4R*)-3-(((1-methylcyclobutyl)methyl)carbamoyl)-7-oxabicyclo[2.2.1]heptan-2-yl)carbamoyl)phenoxy)-1-methylcyclohexane-1-carboxylic acid] are 96% and 170 nM.

As for `COc1cc(F)c(O[C@H]2CC[C@@](C)(C(=O)O)CC2)cc1C(=O)N[C@@H]1COCC[C@@H]1C(=O)Nc1cccc(S(=O)(=O)C(F)(F)F)c1` (racemic) [Example 340], the “Test A Sinf” value is given as 100% and the EC50 is 1800 nM.

`COc1cc(F)c(O[C@H]2CC[C@@H](C(=O)O)CC2)cc1C(=O)N[C@H]1[C@@H](C(=O)Nc2cccc(S(=O)(=O)C(F)(F)F)c2)[C@@H]2C=C[C@H]1C2` (racemic) [Example 495]: the “Test A Sinf” value was 98% and the EC50 came out at 120 nM. For the compound `COc1cc(C#N)c(O[C@H]2CC[C@@](C)(C(=O)O)CC2)cc1C(=O)N[C@@H]1[C@H]2CC[C@H](C2)[C@@H]1C(=O)NC(C)(C)c1ccccc1` [Example 108], the “Test A Sinf” value is 106% and the EC50 was 340 nM.

Turning to `CC[C@]1(C(=O)O)CC[C@@H](Oc2cc(C(=O)N[C@@H]3[C@H]4CC[C@H](C4)[C@@H]3C(=O)NCC(C)(C)C)c(OC)cc2F)CC1` [Example 386], the “Test A Sinf” value is listed as 114% and the half-maximal effective concentration (EC50) came to 70 nM. In the same order, the values of `COc1cc(C#N)c(O[C@H]2CC[C@@](C)(C(=O)O)CC2)cc1C(=O)N[C@@H]1[C@H]2CC[C@H](C2)[C@@H]1C(=O)NC1CC(F)(F)C1` [Example 623] are 104% and 180 nM.
